# Assay results published in US9061060B2, “Deuterated benzylbenzene derivatives and methods of use” (Theracos Inc., priority 2008, dated 2015).
# What was measured:
# [1] = Pharmacokinetic parameters in SD rats; format: in vivo, Sprague-Dawley rats; settings: single oral 3 mg/kg in 30% PEG400, plasma; for CL/F / Cmax / Tmax / AUC(0-t) / half-life: Sprague-Dawley, rat; for AUC(0-t): read-out: AUC0-t (mean ± SD); for half-life: read-out: t1/2 (mean ± SD) (converted)
# Experimental: The pharmacokinetic study of each test compound was conducted in 4 Sprague-Dawley rats following a single oral administration of 3 mg/kg of the compound. The dose was prepared by dissolving test article in appropriate volume of 30% PEG400. The plasma samples were collected from the orbital plexus at 0.083, 0.25, 0.50, 1.0, 2.0, 4.0, 6.0, 8.0, 12 and 24 hours post dose, and the plasma concentrations were determined by a developed LC-MS/MS method.
# CYP1A2 = target: T1, CYP1A2 (Homo sapiens, UniProt P05177); test: P450-Glo CYP screening kit, CYP1A2 inhibition; format: in vitro ADME; settings: luminescence, read-out: IC50 1A2
# T1 construct: purchased Promega
# T1 sequence (P05177 1-516): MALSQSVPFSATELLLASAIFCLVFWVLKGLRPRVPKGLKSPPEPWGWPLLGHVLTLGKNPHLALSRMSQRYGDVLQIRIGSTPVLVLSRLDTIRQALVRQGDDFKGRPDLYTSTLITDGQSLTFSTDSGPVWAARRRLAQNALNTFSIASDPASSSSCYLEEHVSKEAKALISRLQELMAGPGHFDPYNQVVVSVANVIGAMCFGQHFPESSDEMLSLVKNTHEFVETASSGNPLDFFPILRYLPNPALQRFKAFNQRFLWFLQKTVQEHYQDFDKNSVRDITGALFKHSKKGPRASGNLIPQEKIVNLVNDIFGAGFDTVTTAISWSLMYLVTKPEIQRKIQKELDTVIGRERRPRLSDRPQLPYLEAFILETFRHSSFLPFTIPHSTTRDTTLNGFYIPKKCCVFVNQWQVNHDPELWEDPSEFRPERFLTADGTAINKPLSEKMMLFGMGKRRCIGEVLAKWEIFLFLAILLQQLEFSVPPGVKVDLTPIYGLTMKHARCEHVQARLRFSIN
# Source text: (§1) P450-Glo™ CYP Screening Kits for CYP1A2, CYP3A4 and CYP2C19 were purchased from Promega. […] Luminescence was quantified using a Victor 3 spectrophotometer (PerkinElmer).
# CYP3A4 = target: T2, CYP3A4 (Homo sapiens, UniProt P08684); test: P450-Glo CYP screening kit, CYP3A4 inhibition; format: in vitro ADME; settings: luminescence, read-out: IC50 3A4
# T2 construct: purchased Promega
# T2 sequence (P08684 whole entry): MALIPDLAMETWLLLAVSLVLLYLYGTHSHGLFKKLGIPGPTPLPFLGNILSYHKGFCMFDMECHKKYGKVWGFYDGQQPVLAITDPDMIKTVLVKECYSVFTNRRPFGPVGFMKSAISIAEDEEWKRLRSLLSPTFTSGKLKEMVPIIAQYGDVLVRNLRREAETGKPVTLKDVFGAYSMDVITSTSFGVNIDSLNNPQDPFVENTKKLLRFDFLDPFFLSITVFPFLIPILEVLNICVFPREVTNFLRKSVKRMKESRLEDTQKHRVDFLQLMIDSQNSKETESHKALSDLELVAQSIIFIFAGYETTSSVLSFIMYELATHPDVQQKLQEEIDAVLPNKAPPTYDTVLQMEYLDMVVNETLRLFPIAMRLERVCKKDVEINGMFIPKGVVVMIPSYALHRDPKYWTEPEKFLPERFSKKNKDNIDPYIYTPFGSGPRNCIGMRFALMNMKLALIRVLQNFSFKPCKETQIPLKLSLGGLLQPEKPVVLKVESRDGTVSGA
# Source text: as §1
# CYP2C19 = target: T3, CYP2C19 (Homo sapiens, UniProt P33261); test: P450-Glo CYP screening kit, CYP2C19 inhibition; format: in vitro ADME; settings: luminescence, read-out: IC50 2C19
# T3 construct: purchased Promega
# T3 sequence (P33261 whole entry): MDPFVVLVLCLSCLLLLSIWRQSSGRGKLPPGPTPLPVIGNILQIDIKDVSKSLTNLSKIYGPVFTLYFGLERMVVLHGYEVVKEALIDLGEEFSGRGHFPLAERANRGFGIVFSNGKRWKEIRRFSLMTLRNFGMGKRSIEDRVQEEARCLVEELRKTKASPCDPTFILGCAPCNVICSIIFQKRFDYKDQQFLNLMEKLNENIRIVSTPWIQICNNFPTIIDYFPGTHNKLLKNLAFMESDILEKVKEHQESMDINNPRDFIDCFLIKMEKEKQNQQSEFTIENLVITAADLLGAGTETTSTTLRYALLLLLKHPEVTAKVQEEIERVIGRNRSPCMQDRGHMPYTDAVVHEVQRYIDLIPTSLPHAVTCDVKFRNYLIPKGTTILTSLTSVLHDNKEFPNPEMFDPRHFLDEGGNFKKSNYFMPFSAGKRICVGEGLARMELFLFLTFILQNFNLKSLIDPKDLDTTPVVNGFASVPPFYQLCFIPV
# Source text: as §1
# SD rats = test: Urinary glucose excretion in SD rats; format: in vivo; settings: 1 mg/kg oral, glucose 2 g/kg 1 h post dose
# Experimental: Each test compound was dissolved in 30% PEG400 and administered orally to overnight-fasted SD rats by gavage at the dose level of 1 mg/kg. Control rats were given 30% PEG400 only. One hour post dosing, glucose solution (2 g/kg, 10 mL/kg) was administered by oral gavage. Urine was collected within metabolic cages from 0 to 4 hours, and 4 to 24 hours post-dosing for urine volume and glucose measurement. Food was removed 16 hours before dosing and then provided 4 hours after dosing. Water was supplied ad libitum. The concentration of urinary glucose was determined at 4 hours and 24 hours post-dose using a biochemistry analyzer. Results were recorded for the periods 0-4 hours, 4-24 hours and 0-24 hours, and expressed as a percentage of the urinary glucose excretion (UGE) seen with reference compound A, which was run as a positive control in all experiments.
# beagle dogs = test: Urinary glucose excretion in beagle dogs; format: in vivo; settings: for Urinary Glucose Excretion in Dogs, 0-8 h (mean ± SD): 0-8 h (Table 4); for Urinary Glucose Excretion in Dogs, 8-24 h (mean ± SD): 8-24 h (Table 4)
# Experimental: Each test compound was dissolved in 10% PEG400 and administered orally to overnight-fasted beagle dogs by gavage at the dose level of 0.03 mg/kg. Control dogs were given 10% PEG400 only. One hour post dosing, glucose solution (2 g/kg, 5 mL/kg) was administered by oral gavage. Urine was collected within metabolic cages from 0 to 8 hours, and 8 to 24 hours post-dosing for urine volume and glucose measurement. Food was removed 16 hours before dosing and then provided 3 hours after dosing. Water was supplied ad libitum. The concentration of urinary glucose was determined at 8 hours and 24 hours post-dose using a biochemistry analyzer.
# [2] = Pharmacokinetic parameters in Beagle dogs; format: in vivo; settings: dog, single oral 1 mg/kg in 30% PEG400, plasma
# Experimental: The pharmacokinetic study of each test compound was conducted in three Beagle dogs following a single oral administration of 1 mg/kg of the compound. The dose was prepared by dissolving test article in appropriate volume of 30% PEG400. The plasma samples were collected from the cephalic vein pre-dose and at 0.25, 0.50, 1.0, 2.0, 4.0, 6.0, 8.0, 12 and 24 hours post dose, and the plasma concentrations were determined by a developed LC-MS/MS method.
# [3] = 0.03 mg/kg oral, glucose 2 g/kg 1 h post dose
# [4] = 0.03 mg/kg oral, glucose 2 g/kg 1 h post dose, 0-24 h (Table 4)
CL/F [1] [mL/min/kg],Cmax [1] [ng/mL],Tmax [1] [h],AUC(0-t) [1] [ng·h/mL],half-life [1] [h],SMILES,"Urinary Glucose Excretion in Dogs, 0-8 h (mean ± SD) (beagle dogs; [3]) [mg]","Urinary Glucose Excretion in Dogs, 0-24 h (mean ± SD) (beagle dogs; [4]) [mg]","Urinary Glucose Excretion in Dogs, 8-24 h (mean ± SD) (beagle dogs; [3]) [mg]",other results
11.8,594 ± 85.8,1.88 ± 1.55,4240 ± 405,3.39 ± 0.68,"OC[C@H]1O[C@@H](c2ccc(Cl)c(Cc3ccc(OCCOC4CC4)cc3)c2)[C@H](O)[C@@H](O)[C@@H]1O [Ref G, (2S,3R,4R,5S,6R)-2-(4-chloro-3-(4-(2-cyclopropoxyethoxy)benzyl)phenyl)-6-(hydroxymethyl)tetrahydro-2H-pyran-3,4,5-triol, reference compound]",–,–,–,–
–,–,–,–,–,"[2H][C@@]1(c2ccc(Cl)c(Cc3ccc(OCC)cc3)c2)O[C@H](CO)[C@@H](O)[C@H](O)[C@H]1O [compound 5, (2S,3R,4R,5S,6R)-2-(4-chloro-3-(4-ethoxybenzyl)phenyl)-6-(hydroxymethyl)tetrahydro-2H-pyran-2-d-3,4,5-triol]",3765 ± 808,12676 ± 2150,8910 ± 1700,"IC50 (CYP1A2): 500 to 1000 µM; IC50 (CYP3A4): 500 to 1000 µM; IC50 (CYP2C19): 104 µM; Urinary Glucose Excretion in Rats, 0-24 h (mean ± SD) (SD rats; 0-24 h): 2650 ± 385 mg; Urinary Glucose Excretion in Rats, 4-24 h (mean ± SD) (SD rats; 4-24 h): 2457 ± 369 mg"
2.3,–,–,21000 ± 4370,–,"[2H]C([2H])(c1ccc(OC([2H])([2H])C([2H])([2H])[2H])cc1)c1cc([C@@H]2O[C@H](CO)[C@@H](O)[C@H](O)[C@H]2O)ccc1Cl [compound 16, (2S,3R,4R,5S,6R)-2-(4-chloro-3-((4-(ethoxy-d5)phenyl)methyl-d2)phenyl)-6-(hydroxymethyl)tetrahydro-2H-pyran-3,4,5-triol]",4362 ± 818,15357 ± 2514,10995 ± 1987,Cmax (mean ± SD) [1]: 2683 ± 471 ng/mL; t1/2 (mean ± SD) [1]: 5.70 ± 0.63 h; tmax (mean ± SD) [1]: 1.00 ± 0.71 h
4.4,1270 ± 138,2,10600 ± 1600,6.08 ± 1.92,"[2H]C([2H])(c1ccc(C2CC2)cc1)c1cc([C@@H]2O[C@H](CO)[C@@H](O)[C@H](O)[C@H]2O)ccc1Cl [compound 54, (2S,3R,4R,5S,6R)-2-(4-chloro-3-((4-cyclopropylphenyl)methyl-d2)phenyl)-6-(hydroxymethyl)tetrahydro-2H-pyran-3,4,5-triol]",–,–,–,–
–,–,–,–,–,"[2H]C([2H])(c1ccc(OCCOCC(F)F)cc1)c1cc([C@@H]2O[C@H](CO)[C@@H](O)[C@H](O)[C@H]2O)ccc1Cl [compound 87, (2S,3R,4R,5S,6R)-2-(4-chloro-3-((4-(2-(2,2-difluoroethoxy)ethoxy)phenyl)methyl-d2)phenyl)-6-(hydroxymethyl)-tetrahydro-2H-pyran-3,4,5-triol]",–,–,–,"Urinary Glucose Excretion in Dogs, 0-24 h (mean ± SD) (beagle dogs; separate experiment (Table 4A), 0-24 h): 16858 ± 674 mg; AUC(0-t) ([2]; read-out: AUC0-t (mean ± SD)): 8880 ± 1440 ng·h/mL; CL/F ([2]; read-out: CL/F (mean ± SD) (converted)): 1.85 mL/min/kg; Cmax ([2]; read-out: Cmax (mean ± SD)): 1580 ± 282 ng/mL; Tmax ([2]; read-out: tmax (mean ± SD)): 0.6 ± 0.4 h"
9.2,710 ± 76.4,2.13 ± 1.44,5240 ± 328,4.83 ± 1.42,"[2H]C([2H])(COc1ccc(Cc2cc([C@@H]3O[C@H](CO)[C@@H](O)[C@H](O)[C@H]3O)ccc2Cl)cc1)OC1CC1 [compound 95, (2S,3R,4R,5S,6R)-2-(4-chloro-3-(4-(2-cyclopropoxy(ethoxy-2,2-d2))benzyl)phenyl)-6-(hydroxymethyl)tetrahydro-2H-pyran-3,4,5-triol]",–,–,–,–
